Measurements reported in patent publication US12637461B2, “Compounds for the activation of AMPK” (PFIZER INC., priority 2022, dated 2026).

Molecular target: T1, human AMPK α2β2γ3 (Homo sapiens, UniProt O43741+P54646+Q9UGI9)
T1 construct: expressed in transfected cells; host or cells: HEK293AD cells, MaxCyte bulk electroporation
Test: Primary cellular assay: γ3 associated phospho-Thr172 AMPK detection (custom pAMPK Surefire AlphaLISA) in α2β2γ3 bulk transiently transfected HEK293 cells
Format: cell-based
Details: activation of human AMPK α2β2γ3 (γ3 pThr172 AMPK signal) in transiently transfected HEK293 cells, 20 minutes compound incubation; for Emax: 20 min, read-out: Assay GMean Asy. Max (%); for Emax / Assay GMean Asy. Max (%): geometric mean of the asymptotic max; for EC50: geometric mean EC50, read-out: Assay GMean EC50
How it was run: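 Transiently co-transfected (α2/β2/γ3 plasmids, electroporation) HEK293AD cells, plated 2 days in low-glucose DMEM+10% FBS, treated 20 min with compounds (11-point half-log dilutions). Lysates read by modified AlphaLISA capturing γ3 with pThr172 antibody detection. % effect relative to 30 μM HPE and DMSO; EC50 and Emax from curve fit.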

T1 sequence (P54646 whole entry): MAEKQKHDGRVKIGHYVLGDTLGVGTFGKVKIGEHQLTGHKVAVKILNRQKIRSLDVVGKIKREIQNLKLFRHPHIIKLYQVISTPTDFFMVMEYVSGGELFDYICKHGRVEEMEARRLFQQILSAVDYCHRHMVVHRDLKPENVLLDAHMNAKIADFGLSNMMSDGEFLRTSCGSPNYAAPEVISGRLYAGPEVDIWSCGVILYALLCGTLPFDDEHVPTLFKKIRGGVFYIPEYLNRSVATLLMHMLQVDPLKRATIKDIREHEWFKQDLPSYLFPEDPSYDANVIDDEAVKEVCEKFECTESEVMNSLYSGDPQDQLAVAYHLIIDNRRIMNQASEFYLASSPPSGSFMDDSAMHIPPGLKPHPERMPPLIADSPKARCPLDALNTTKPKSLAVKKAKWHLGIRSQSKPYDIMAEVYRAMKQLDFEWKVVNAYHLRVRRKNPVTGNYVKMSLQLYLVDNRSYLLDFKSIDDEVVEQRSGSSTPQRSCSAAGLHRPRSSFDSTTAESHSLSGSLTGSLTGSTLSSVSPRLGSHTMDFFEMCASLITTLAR
T1 sequence (O43741 whole entry): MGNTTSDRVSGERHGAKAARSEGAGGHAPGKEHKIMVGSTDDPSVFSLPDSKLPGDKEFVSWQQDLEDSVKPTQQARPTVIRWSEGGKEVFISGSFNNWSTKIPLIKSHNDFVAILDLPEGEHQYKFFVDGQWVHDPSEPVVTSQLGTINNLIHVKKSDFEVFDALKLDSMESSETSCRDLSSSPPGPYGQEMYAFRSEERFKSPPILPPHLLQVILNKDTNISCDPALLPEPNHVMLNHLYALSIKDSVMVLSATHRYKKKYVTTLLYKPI
T1 sequence (Q9UGI9 whole entry): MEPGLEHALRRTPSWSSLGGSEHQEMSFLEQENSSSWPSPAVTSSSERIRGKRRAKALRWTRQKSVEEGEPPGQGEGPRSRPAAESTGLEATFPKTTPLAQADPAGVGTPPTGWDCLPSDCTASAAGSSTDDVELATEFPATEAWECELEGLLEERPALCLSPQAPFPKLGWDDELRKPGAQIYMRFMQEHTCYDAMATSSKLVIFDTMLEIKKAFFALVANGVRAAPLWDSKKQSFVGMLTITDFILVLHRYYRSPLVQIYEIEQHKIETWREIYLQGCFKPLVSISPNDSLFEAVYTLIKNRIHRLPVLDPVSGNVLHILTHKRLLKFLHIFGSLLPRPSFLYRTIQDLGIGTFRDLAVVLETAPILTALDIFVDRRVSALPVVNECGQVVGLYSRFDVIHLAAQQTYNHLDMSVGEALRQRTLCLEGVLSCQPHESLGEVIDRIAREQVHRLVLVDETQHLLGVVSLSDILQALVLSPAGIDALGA

Compound | Emax [%] | EC50 [nM] | Assay GMean Asy. Max (%)
CC1(c2cccc(Cl)c2F)CN(c2ccc3cncn3c2)C(=O)c2cnc(NC3CN(C(=O)[C@@H]4C[C@@H]4F)C3)nc21 (single isomer, unassigned) [compound 79] | 121 | 2830 | 
CC1(c2cccc(Cl)c2F)CN(c2ccc(CO)cn2)C(=O)c2ccc(NC3CN(C(=O)N4C[C@@H]5C[C@H]4CO5)C3)c(F)c21 (single isomer, unassigned) [Example 37] | 163 | 19.1 | 
Cn1cc(F)c(N2C[C@](C)(c3cccc(Cl)c3F)c3c(cnc(NC4CN(C(=O)[C@@H]5CC5(F)F)C4)c3F)C2=O)n1 [compound 39, (4R)-4-(3-chloro-2-fluorophenyl)-6-({1-[(1S)-2,2-difluorocyclopropane-1-carbonyl]azetidin-3-yl}amino)-5-fluoro-2-(4-fluoro-1-methyl-1H-pyrazol-3-yl)-4-methyl-3,4-dihydro-2,7-naphthyridin-1(2H)-one] | 91.2 | 68.7 | 
Cn1cc(F)c(N2CC(C)(c3ccc(F)c(Cl)c3F)c3c(cnc(NC4CN(C(=O)[C@@H]5C[C@@H]5F)C4)c3F)C2=O)n1 (single isomer, unassigned) [Example 23] | 91.4 | 28.1 | 
CC1(c2cccc(Cl)c2F)CN(c2ncccc2F)C(=O)c2cnc(NC3CN(C(=O)[C@@H]4CC45CCOCC5)C3)nc21 (single isomer, unassigned) [compound 82] | 218 | 107 | 
C[C@]1(c2cccc(Cl)c2F)CN(c2ncccc2F)C(=O)c2cnc(NC3CN(C(=O)N4CCN5CC(F)(F)C[C@@H]5C4)C3)c(F)c21 [compound 100, (4R)-4-(3-chloro-2-fluorophenyl)-6-({1-[(8aR)-7,7-difluorohexahydropyrrolo[1,2-a]pyrazine-2(1H)-carbonyl]azetidin-3-yl}amino)-5-fluoro-2-(3-fluoropyridin-2-yl)-4-methyl-3,4-dihydro-2,7-naphthyridin-1(2H)-one] | 22.8 | 11.6 | 
CC1(c2cccc(Cl)c2F)CN(c2ncccc2F)C(=O)c2cnc(NC3CN(C(=O)N4CC5CC4C5)C3)nc21 (centres unmarked) [compound 89, 2-{[1-(2-azabicyclo[2.1.1]hexane-2-carbonyl)azetidin-3-yl]amino}-8-(3-chloro-2-fluorophenyl)-6-(3-fluoropyridin-2-yl)-8-methyl-7,8-dihydropyrido[4,3-d]pyrimidin-5(6H)-one,from P13 (ENANT-2)] | 148 | 152 | 
CN1CCC(N2CC(Nc3ncc4c(c3F)[C@@](C)(c3cccc(Cl)c3F)CN(c3nn(C)cc3F)C4=O)C2)C1=O (single isomer, unassigned) [compound 70] |  | 47.6 | 80.4
CC(C)NCC(=O)N1CC(Nc2ncc3c(c2F)[C@@](C)(c2cccc(Cl)c2F)CN(c2nn(C)cc2F)C3=O)C1 [Example 13, (4R)-4-(3-Chloro-2-fluorophenyl)-5-fluoro-2-(4-fluoro-1-methyl-1H-pyrazol-3-yl)-4-methyl-6-[(1-{[(propan-2-γ1)amino]acetyl}azetidin-3-γ1)amino]-3,4-dihydro-2,7-naphthyridin-1(2H)-one] |  | 108 | 46.2

Next, values leading:

Emax [%] | EC50 [nM] | Assay GMean Asy. Max (%) | Compound
49.7 | 70.2 |  | Cn1cc(F)c(N2C[C@](C)(c3cccc(Cl)c3F)c3c(cnc(NC4CN(C(=O)[C@H]5C[C@H]5F)C4)c3F)C2=O)n1 [compound 99, (4R)-4-(3-chloro-2-fluorophenyl)-5-fluoro-6-({1-[(1R,2R)-2-fluorocyclopropane-1-carbonyl]azetidin-3-yl}amino)-2-(4-fluoro-1-methyl-1H-pyrazol-3-yl)-4-methyl-3,4-dihydro-2,7-naphthyridin-1(2H)-one]
113 | 27.5 |  | CC1(c2ccc(F)c(Cl)c2F)CN(c2ccc(CO)cn2)C(=O)c2cnc(NC3CN(C(=O)N4C[C@@H]5C[C@H]4CO5)C3)c(F)c21 (single isomer, unassigned) [compound 103]
62.4 | 157 |  | C[C@]1(c2cccc(Cl)c2F)CN(c2ccc(CO)cn2)C(=O)c2cnc(NC3CN(C(=O)c4ncccn4)C3)c(F)c21 [compound 59, (4R)-4-(3-chloro-2-fluorophenyl)-5-fluoro-2-[5-(hydroxymethyl)pyridin-2-yl]-4-methyl-6-{[1-(pyrimidine-2-carbonyl)azetidin-3-yl]amino}-3,4-dihydro-2,7-naphthyridin-1(2H)-one]
38.4 | 19.8 |  | Cc1c(F)ccc(C2(C)CN(c3ccc(CO)cn3)C(=O)c3cnc(NC4CN(C(=O)[C@@H]5C[C@@H]5F)C4)c(F)c32)c1F (single isomer, unassigned) [compound 105]
136 | 44.7 |  | C[C@]1(c2cccc(Cl)c2F)CN(c2ccc(CO)cn2)C(=O)c2cnc(NC3CN(C(=O)N4C[C@@H]5C[C@H]4CO5)C3)c(F)c21 [Example 22, (4R)-4-(3-Chloro-2-fluorophenyl)-5-fluoro-2-[5-(hydroxymethyl)pyridin-2-yl]-4-methyl-6-({1-[(1 S,4S)-2-oxa-5-azabicyclo[2.2.1]heptane-5-carbonyl]azetidin-3-yl}amino)-3,4-dihydro-2,7-naphthyridin-1(2H)-one]
48.6 | 53.5 |  | Cn1cc(C(=O)N2CC(Nc3ncc4c(c3F)[C@@](C)(c3cccc(Cl)c3F)CN(c3ccc(CO)cn3)C4=O)C2)nn1 [compound 60, (4R)-4-(3-chloro-2-fluorophenyl)-5-fluoro-2-[5-(hydroxymethyl)pyridin-2-yl]-4-methyl-6-{[1-(1-methyl-1H-1,2,3-triazole-4-carbonyl)azetidin-3-yl]amino}-3,4-dihydro-2,7-naphthyridin-1(2H)-one]
29.6 | 247 |  | Cn1cc(F)c(N2C[C@](C)(c3cccc(Cl)c3F)c3c(cnc(NC4CN(CC(N)=O)C4)c3F)C2=O)n1 [compound 68, 2-(3-{[(5R)-5-(3-chloro-2-fluorophenyl)-4-fluoro-7-(4-fluoro-1-methyl-1H-pyrazol-3-yl)-5-methyl-8-oxo-5,6,7,8-tetrahydro-2,7-naphthyridin-3-yl]amino}azetidin-1-yl)acetamide]
100 | 92.2 |  | Cn1cc(F)c(N2C[C@](C)(c3cccc(Cl)c3F)c3c(cnc(NC4CN(C(=O)C(C)(C)O)C4)c3F)C2=O)n1 [compound 61, (4R)-4-(3-chloro-2-fluorophenyl)-5-fluoro-2-(4-fluoro-1-methyl-1H-pyrazol-3-yl)-6-{[1-(2-hydroxy-2-methylpropanoyl)azetidin-3-yl]amino}-4-methyl-3,4-dihydro-2,7-naphthyridin-1(2H)-one]
80.2 | 120 |  | CN(C)CC(=O)N1CC(Nc2ncc3c(c2F)[C@@](C)(c2cccc(Cl)c2F)CN(c2nn(C)cc2F)C3=O)C1 [compound 41, (4R)-4-(3-chloro-2-fluorophenyl)-6-({1-[(dimethylamino)acetyl]azetidin-3-yl}amino)-5-fluoro-2-(4-fluoro-1-methyl-1H-pyrazol-3-yl)-4-methyl-3,4-dihydro-2,7-naphthyridin-1(2H)-one]
96.3 | 66.3 |  | C[C@]1(c2cccc(Cl)c2F)CN(c2ccc(CO)cn2)C(=O)c2cnc(NC3CN(C(=O)c4cccnn4)C3)c(F)c21 [Example 4, (4R)-4-(3-Chloro-2-fluorophenyl)-5-fluoro-2-[5-(hydroxymethyl)pyridin-2-yl]-4-methyl-6-{[1-(pyridazine-3-carbonyl)azetidin-3-yl]amino}-3,4-dihydro-2,7-naphthyridin-1(2H)-one]
